The values that follow come from ChEMBL document CHEMBL2028040, “Malaria Box”.

Data set [1] deals with Plasmodium falciparum. Briefly: MMV: Inhibition of Plasmodium falciparum 3D7 at 5uM compound concentration. Format: functional.
In data set [2] the test system is Plasmodium falciparum. The data set can be described thus: MMV: Inhibition of Plasmodium falciparum 3D7 (EC50). Format: functional, organism-based.
The test system of data set [3] is Plasmodium falciparum. The data set can be described thus: MMV: Inhibition of Plasmodium falciparum K1 (EC50). The format is functional, organism-based.
The test system of a further data set is Trypanosoma cruzi. The data set can be described thus: MMV: Inhibition of Trypanosoma cruzi (Tulahuen C4 LacZ) (Chagas in vitro). Format: functional, organism-based.
In data set [4] the test system is Trypanosoma brucei brucei. Briefly: MMV: Inhibition of Trypanosoma brucei brucei (Squib 427) (HAT in vitro). The format is functional, organism-based.
In data set [5] the test system is Trypanosoma brucei rhodesiense. Briefly: MMV: Inhibition of Trypanosoma brucei rhodesiense (STIB 900) (HAT in vitro). Format: functional, organism-based.
In a further data set the test system is Leishmania infantum. Briefly: MMV: Inhibition of Leishmania infantum (MHOM/MA/BE/67) in vitro. Format: functional, organism-based.
The nature of data set [6]: MMV: Cytotoxicity against human fibroblasts (MRC-5) cells. The settings on record: MRC-5 cells (human fibroblasts).

One may read the inhibition as the drop in the measured response relative to a control, in per cent. A lower inhibition goes with a response near the control. As usually defined, the EC50 is the concentration giving half of the maximal effect. Read a low EC50 as higher potency in that assay. One may read the IC50 as the point on the concentration scale where inhibition reaches its midpoint. For the compound `COc1cc(OC)c(N(C)C(=O)c2cc3c(s2)-c2ccccc2S(=O)(=O)C3)cc1Cl`, 5 µM produced 100% inhibition in the data set on Plasmodium falciparum [1]. Besides, the EC50 with Plasmodium falciparum [2] was determined as 78.2 nM; with Plasmodium falciparum [3], 93.6 nM. The IC50 was 15.7 µM in the data set with Trypanosoma cruzi; 16.2 µM in data set [4]; 4.36 µM in data set [5]; 21.5 µM with Leishmania infantum; greater than 32 µM in data set [6].
Regarding `CCCCNc1nc(NC(C)(C)C)nc(NC(C)(C)C)n1`, the inhibition at 5 µM in the data set on Plasmodium falciparum [1] turned out to be 98%. Moreover, the EC50 in the data set with Plasmodium falciparum [2] was found to be 706 nM; with Plasmodium falciparum [3], 705 nM. In addition, the IC50 in the data set on Trypanosoma cruzi was 9.19 µM; in data set [4], 1.33 µM; in data set [5], 2 µM; with Leishmania infantum it was 2.97 µM; in data set [6] it was greater than 32 µM.
In turn, `CCCN(CCC)CC(O)COc1ccccc1C(=O)Nc1ccccc1` (configuration not stated) gave an inhibition at 5 µM in the data set with Plasmodium falciparum [1] of 98%. For the same compound, the EC50 in the data set with Plasmodium falciparum [2] was determined as 196 nM; with Plasmodium falciparum [3], 58.1 nM. The IC50 (in the data set with Trypanosoma cruzi; in data set [4]; in data set [5]; with Leishmania infantum; in data set [6]) was greater than 32 µM in each case.
In the data set with Plasmodium falciparum [1], `CN(C)CCCNCc1ccc(-c2ccc(F)c(Cl)c2)o1` yielded an inhibition at 5 µM of 96%. In addition, the EC50 in the data set with Plasmodium falciparum [2] is 876 nM; with Plasmodium falciparum [3], 763 nM. Also, the IC50 with Trypanosoma cruzi is 3.85 µM; in data set [4], 0.185 µM; in data set [5] it was less than 0.125 µM; in the data set with Leishmania infantum, 4.15 µM; in data set [6], 17.3 µM.
Regarding `CCOc1cc2c(cc1OCC)C(c1cc(OC)c(O)cc1Cl)NCC2` (configuration not stated), the inhibition at 5 µM with Plasmodium falciparum [1] was 98%. Further, the figures for the EC50 in the data set on Plasmodium falciparum [2] and in the data set on Plasmodium falciparum [3] were 370 nM and 114 nM, respectively. Besides, the IC50 is 14.6 µM with Trypanosoma cruzi; 15.2 µM in data set [4]; 16.2 µM in data set [5]; greater than 32 µM with Leishmania infantum; greater than 32 µM in data set [6].
In turn, `Oc1ccccc1CN1CCN(C(c2ccccc2)c2ccccc2)CC1` showed an inhibition at 5 µM in the data set with Plasmodium falciparum [1] of 97%. Moreover, the EC50 worked out at 611 nM in the data set on Plasmodium falciparum [2] and 203 nM in the data set on Plasmodium falciparum [3]. In addition, the IC50 in the data set with Trypanosoma cruzi was 4.1 µM; in data set [4], 15.6 µM; in data set [5], 12.5 µM; in the data set with Leishmania infantum, 11.9 µM; in data set [6], greater than 32 µM.
Compound `CCCCCCc1cc2cc(-c3nc4ccccc4[nH]3)c(=Nc3ccccc3C)oc2cc1O` gave an inhibition at 5 µM in the data set with Plasmodium falciparum [1] of 96%. In addition, the concentration for a half-maximal effect (EC50) in the data set with Plasmodium falciparum [2] is 551 nM; in the data set on Plasmodium falciparum [3], 149 nM. The IC50 is greater than 32 µM in the data set with Trypanosoma cruzi; 17 µM in data set [4]; 12.8 µM in data set [5]; greater than 32 µM with Leishmania infantum; greater than 32 µM in data set [6].
For the compound `Cc1ccc(F)cc1NC(=O)c1cc(Cl)ccc1Nc1ccccc1`, testing at 5 µM with Plasmodium falciparum [1] gave an inhibition of 99%. Also, the EC50 with Plasmodium falciparum [2] worked out at 539 nM; in the data set on Plasmodium falciparum [3] it was 507 nM. Also, the IC50 (in the data set on Trypanosoma cruzi; in data set [4]; in data set [5]; in the data set on Leishmania infantum; in data set [6]) was greater than 32 µM each time.
Regarding `COc1ccc(-c2cc(=O)oc3c4c(ccc23)OCN(Cc2ccc(F)cc2)C4)cc1`, the inhibition at 5 µM in the data set with Plasmodium falciparum [1] is 96%. The EC50 in the data set with Plasmodium falciparum [2] stood at 735 nM; in the data set on Plasmodium falciparum [3], 294 nM. Besides, the IC50 in the data set on Trypanosoma cruzi is 13.2 µM; in data set [4], 15.8 µM; in data set [5] it was 11 µM; in the data set with Leishmania infantum, 5.38 µM; in data set [6] it was greater than 32 µM.
As for `O=C1c2ccc3c4c(ccc(c24)C(=O)N1CCCCO)C(=O)N(CCCCO)C3=O`, in the data set with Plasmodium falciparum [1], 5 µM produced 97% inhibition. In addition, the EC50 with Plasmodium falciparum [2] turned out to be 795 nM; in the data set with Plasmodium falciparum [3], 858 nM. The half-maximal inhibitory concentration (IC50) with Trypanosoma cruzi amounted to 2.07 µM; in data set [4], 2.84 µM; in data set [5], 1 µM; in the data set on Leishmania infantum it was 1.01 µM; in data set [6] it was 13.8 µM.
`COc1ccc(NC(=O)C2c3ccccc3C(=O)N(CC(C)C)C2c2cccs2)cc1` (configuration not stated) yielded an inhibition at 5 µM in the data set with Plasmodium falciparum [1] of 100%. In addition, the EC50 in the data set on Plasmodium falciparum [2] stood at 36.7 nM; with Plasmodium falciparum [3] it was 73.9 nM. For the same compound, the IC50 with Trypanosoma cruzi is greater than 32 µM; in data set [4], 16.1 µM; in data set [5], 4.32 µM; in the data set on Leishmania infantum, greater than 32 µM; in data set [6], greater than 32 µM.
For `CC(C)OCc1cc(CN2CCN(c3cccc(Cl)c3)CC2)c(O)c2ncccc12`, testing at 5 µM with Plasmodium falciparum [1] gave an inhibition of 98%. Besides, the half-maximal effective concentration (EC50) in the data set on Plasmodium falciparum [2] came out at 697 nM; with Plasmodium falciparum [3] it was 1140 nM. The IC50 was 0.234 µM in the data set with Trypanosoma cruzi; 1 µM in data set [4]; 0.352 µM in data set [5]; 1.19 µM in the data set on Leishmania infantum; 1.17 µM in data set [6].
Compound `O=C(Nc1ccc(N2CCCCC2)c(Cl)c1)c1ccc(Br)o1` gave an inhibition at 5 µM in the data set on Plasmodium falciparum [1] of 96%. Also, the EC50 came to 735 nM with Plasmodium falciparum [2] and 1450 nM in the data set on Plasmodium falciparum [3]. Also, the IC50 in the data set on Trypanosoma cruzi is 14.9 µM; in data set [4], 15.1 µM; in data set [5], 13.6 µM; in the data set with Leishmania infantum it was greater than 32 µM; in data set [6] it was 26.8 µM.
Compound `CCOC(=O)C1=C(C)N=c2sc(=Cc3ccccc3O)c(=O)n2C1c1ccc(OC)c2ccccc12` (configuration not stated) had an inhibition at 5 µM in the data set on Plasmodium falciparum [1] of 97%. Further, the concentration for a half-maximal effect (EC50) turned out to be 1510 nM in the data set on Plasmodium falciparum [2] and 1170 nM in the data set on Plasmodium falciparum [3]. The IC50 in the data set with Trypanosoma cruzi is greater than 32 µM; in data set [4] it was 16.9 µM; in data set [5], 7.36 µM; in the data set on Leishmania infantum, 16.2 µM; in data set [6] it was greater than 32 µM.
In the case of `CN(C)c1ccc(C=Cc2nc(=O)c3ccccc3o2)cc1`, the inhibition at 5 µM with Plasmodium falciparum [1] came to 96%. Moreover, the figures for the EC50 in the data set with Plasmodium falciparum [2] and with Plasmodium falciparum [3] were 51.5 nM and 27.2 nM, respectively. The IC50 in the data set on Trypanosoma cruzi is greater than 32 µM; in data set [4] it was greater than 32 µM; in data set [5] it was 3.06 µM; in the data set on Leishmania infantum it was greater than 32 µM; in data set [6], greater than 32 µM.
In the data set on Plasmodium falciparum [1], `CCc1c(C)c(=N)c2ccccc2n1C` gave an inhibition at 5 µM of 76%. In addition, the results for the EC50 in the data set with Plasmodium falciparum [2] and in the data set on Plasmodium falciparum [3] were 378 nM and 994 nM, respectively. Further, the IC50 was 3.06 µM in the data set with Trypanosoma cruzi; greater than 32 µM in data set [4]; greater than 32 µM in data set [5]; greater than 32 µM with Leishmania infantum; 6.89 µM in data set [6].
On to `CCC(c1ccccc1)c1nn2c(-c3cccs3)nnc2s1` (configuration not stated), for which, in the data set on Plasmodium falciparum [1], the inhibition at 5 µM stood at 99%. For the same compound, the values for the EC50 with Plasmodium falciparum [2] and with Plasmodium falciparum [3] were 259 nM and 916 nM, respectively. Further, the IC50 is 4.09 µM with Trypanosoma cruzi; 16.1 µM in data set [4]; 13.1 µM in data set [5]; 12 µM with Leishmania infantum; greater than 32 µM in data set [6].
Take `COc1ccc2c(=O)cc(C(Cl)(Cl)Cl)oc2c1`: at 5 µM the inhibition with Plasmodium falciparum [1] was 94%. The EC50 with Plasmodium falciparum [2] turned out to be 520 nM; in the data set on Plasmodium falciparum [3], 550 nM. The IC50 in the data set with Trypanosoma cruzi is 0.432 µM; in data set [4], 16.9 µM; in data set [5], greater than 32 µM; with Leishmania infantum, 16.2 µM; in data set [6], 7.58 µM.
Consider `CCOc1cc(Cl)c(C(C)NC(=O)c2cccc(OC)c2)cc1OCC` (configuration not stated), for which at 5 µM the inhibition with Plasmodium falciparum [1] was 98%. Further, the EC50 amounted to 728 nM with Plasmodium falciparum [2] and 1360 nM with Plasmodium falciparum [3]. Besides, the IC50 is 18.7 µM in the data set with Trypanosoma cruzi; greater than 32 µM in data set [4]; 21 µM in data set [5]; greater than 32 µM in the data set on Leishmania infantum; 6.59 µM in data set [6].
